Patent US7332605B2, “Process for the synthesis of CXCR4 antagonist” (AnorMED, Inc., priority 2004, dated 2008)
In brackets after ≈: the same amount, converted by molar mass. Where two headings read alike, the source gives them in different places.

Experiments:
[1] = Solubility of Formula I compound in aqueous media; type: physicochemical; settings: aqueous media at a pH at or below 6.0
From the text: The Formula I compound in freebase form, in a mixture of dichloromethane and another solvent can be washed with an aqueous base such as 0.5N sodium hydroxide to remove traces of hydrazine. The Formula I compound can then be extracted into a dilute aqueous acid such as 1N hydrochlororic acid. […] If the pH of the aqueous solution is below 5, it can then be adjusted to 5-7, with a preferred pH being 6.0 for the removal of impurities. Non-polar organic impurities will remain in the organic layer. A number of solvents can be used, if desired, for further extraction of non-polar organic impurities including ethyl acetate, methyl t-butyl ether, tetrahydrofuran, dichloromethane and chloroform.

[2] = Solubility of compound I in organic crystallization solvents; type: physicochemical; settings: organic solvent or mixture
Experimental: A crystallization solvent (solvent B) is then added which can include, but is not limited to the following, or mixtures of the following: tetrahydrofuran, ethyl acetate, cumene, isopropyl acetate, n-propyl acetate, dichloromethane, ethanol, isopropanol, methanol, isopropyl ether, diethyl ether and t-butyl methyl ether. A preferred solvent is isopropyl acetate. A sufficient volume of solvent B is added to typically reach a complete solvation of compound I at an elevated temperature. The elevated temperature will depend on the nature of the solvent, with a reflux condition being the highest temperature possible.
The crystalline compound I may also be isolated from a number of different solvent systems. Compound I is soluble at >600 mg/mL in 55° C. tetrahydrofuran, and can be recovered as crystalline material by cooling the solution. Similarly, compound I can be isolated as crystalline material from a hot solution of cumene. Compound I is very soluble in dichloromethane (>700 mg/mL), but can be precipitated as a crystalline material from the solution through the addition of diethyl ether. Ethyl acetate is an effective solvent for crystallization, with solubilities of compound I of ca. 150 mg/mL at 60° C. being achievable.

[3] = tested on: HIV, X4 (T-tropic) virus; settings: in humans; cited from earlier work

solubility in aqueous media [1]	solubility ([2]; 60 °C, isopropyl acetate at 60-65° C., read-out: complete solubility in isopropyl acetate)	solubility ([2]; dichloromethane, read-out: solubility in dichloromethane)	solubility ([2]; 55° C. tetrahydrofuran, read-out: solubility in tetrahydrofuran)	solubility ([2]; ethyl acetate at 60° C., read-out: solubility in ethyl acetate)	SMILES	effect on HIV viral load and X4 (T-tropic) virus levels [3]
readily soluble	~125 mg/mL (≈ 358 mM)	> 700 mg/mL	> 600 mg/mL	~150 mg/mL (≈ 429 mM)	NCCCCN(Cc1nc2ccccc2[nH]1)C1CCCc2cccnc21 (stereo not drawn) [Compound I, N′-(1H-benzimidazol-2-ylmethyl)-N′-(5,6,7,8-tetrahydro-quinolin-8-yl)-butane-1,4-diamine]	–
–	–	–	–	–	c1cc(CN2CCCNCCNCCCNCC2)ccc1CN1CCCNCCNCCCNCC1 [AMD3100]	reduce HIV viral load and X4 (T-tropic) virus levels
